What follows are compounds tested against ROCK2 (Homo sapiens, UniProt O75116) (assay: ROCK kinase inhibition assay, FITC peptide substrate, LABCHIP 3000 readout). Settings: 5 μM ATP, 1.5 μM peptide substrate.
Type: biochemical
Description: Compounds were dissolved in DMSO so that the final concentration of DMSO was <2%, and the reaction was initiated with Rho kinase variants. After incubation, the reaction was terminated by the addition of EDTA and the phosphorylated and non-phosphorylated peptides separated using a LABCHIP® 3000 Reader (Caliper Life Sciences). […] Compounds were tested in dose-response format, and the inhibition of kinase activity was calculated at each concentration of compound.

Sequence of ROCK2 (O75116 whole entry, species assumed): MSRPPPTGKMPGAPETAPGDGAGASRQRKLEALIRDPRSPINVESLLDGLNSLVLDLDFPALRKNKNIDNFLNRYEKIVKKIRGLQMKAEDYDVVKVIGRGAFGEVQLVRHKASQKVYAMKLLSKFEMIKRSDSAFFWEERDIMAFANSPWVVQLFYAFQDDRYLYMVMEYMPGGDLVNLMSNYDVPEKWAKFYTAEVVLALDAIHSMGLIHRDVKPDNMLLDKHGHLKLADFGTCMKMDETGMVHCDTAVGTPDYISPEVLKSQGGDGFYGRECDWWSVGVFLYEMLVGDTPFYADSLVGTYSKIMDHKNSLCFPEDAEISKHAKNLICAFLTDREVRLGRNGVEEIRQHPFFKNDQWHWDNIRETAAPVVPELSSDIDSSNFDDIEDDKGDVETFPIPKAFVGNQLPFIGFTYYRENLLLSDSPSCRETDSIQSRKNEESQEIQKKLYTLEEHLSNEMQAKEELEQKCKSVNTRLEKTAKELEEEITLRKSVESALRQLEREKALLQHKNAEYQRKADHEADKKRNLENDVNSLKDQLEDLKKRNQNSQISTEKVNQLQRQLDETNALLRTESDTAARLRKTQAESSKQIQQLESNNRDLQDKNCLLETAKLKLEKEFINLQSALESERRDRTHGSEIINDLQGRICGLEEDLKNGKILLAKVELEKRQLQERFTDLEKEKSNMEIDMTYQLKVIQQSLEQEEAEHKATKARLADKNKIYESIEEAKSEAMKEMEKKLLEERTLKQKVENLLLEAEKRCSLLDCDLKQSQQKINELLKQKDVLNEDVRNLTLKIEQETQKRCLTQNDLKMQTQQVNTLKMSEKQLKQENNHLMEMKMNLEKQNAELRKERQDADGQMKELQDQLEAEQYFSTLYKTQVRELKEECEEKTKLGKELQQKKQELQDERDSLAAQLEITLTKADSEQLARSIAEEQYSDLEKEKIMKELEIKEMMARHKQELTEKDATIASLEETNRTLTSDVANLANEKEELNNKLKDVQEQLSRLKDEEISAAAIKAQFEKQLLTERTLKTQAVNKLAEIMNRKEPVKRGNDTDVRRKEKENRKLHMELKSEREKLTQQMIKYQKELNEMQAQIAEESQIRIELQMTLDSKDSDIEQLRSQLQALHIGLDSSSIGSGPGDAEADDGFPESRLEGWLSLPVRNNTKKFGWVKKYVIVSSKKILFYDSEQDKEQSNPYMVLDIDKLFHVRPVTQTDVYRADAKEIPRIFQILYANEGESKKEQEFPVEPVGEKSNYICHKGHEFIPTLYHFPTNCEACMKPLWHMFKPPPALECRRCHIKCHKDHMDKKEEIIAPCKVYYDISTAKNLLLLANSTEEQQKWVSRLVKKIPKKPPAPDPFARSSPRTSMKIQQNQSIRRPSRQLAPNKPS

IC50 | SMILES
0.7 nM | COc1cc(N2CCC3(CCN(C(=O)c4ccc(N5CCN(C6CCCCC6)CC5)cc4)CC3)C2=O)ccc1-c1cn[nH]c1 [Example 226, 8-[4-(4-cyclohexylpiperazin-1-yl)benzoyl]-2-[3-methoxy-4-(1H-pyrazol-4-yl)phenyl]-2,8-diazaspiro[4.5]decan-1-one]
144 nM | COc1cc(N2CCC3(CCN(C(=O)c4ccc5cc6n(c5c4)C(C)CNC6=O)CC3)C2=O)ccc1-c1cn[nH]c1 (stereo not shown) [Example 150, 2-[3-methoxy-4-(1H-pyrazol-4-yl)phenyl]-8-{4-methyl-1-oxo-1H,2H,3H,4H-pyrazino[1,2-a]indole-7-carbonyl}-2,8-diazaspiro[4.5]decan-1-one]
4.5 nM | COc1cc(N2CCC3(CCN(C(=O)c4ccc(N5CCN(Cc6ccc(-c7ccccc7)cc6)CC5)cc4)CC3)C2=O)ccc1-c1cn[nH]c1 [Example 225, 8-{4-[4-({[1,1′-biphenyl]-4-yl}methyl)piperazin-1-yl]benzoyl}-2-[3-methoxy-4-(1H-pyrazol-4-yl)phenyl]-2,8-diazaspiro[4.5]decan-1-one]
46 nM | COc1cc(N2CCC3(CCN(S(=O)(=O)c4ccc5ncsc5c4)CC3)C2=O)ccc1-c1cn[nH]c1 [Example 211, 8-(1,3-benzothiazole-6-sulfonyl)-2-[3-methoxy-4-(1H-pyrazol-4-yl)phenyl]-2,8-diazaspiro[4.5]decan-1-one]
12 nM | COc1cc(N2CCC3(CCN(C(=O)c4ccc(-n5ccncc5=O)cc4)CC3)C2=O)ccc1-c1cn[nH]c1 [Example 146, 2-[3-methoxy-4-(1H-pyrazol-4-yl)phenyl]-8-[4-(2-oxo-1,2-dihydropyrazin-1-yl)benzoyl]-2,8-diazaspiro[4.5]decan-1-one]
50 nM | COCCN1Cc2cccc(C(=O)N3CCC4(CC3)CCN(c3ccc(-c5cn[nH]c5)c(OC)c3)C4=O)c2C1=O [Example 204, 2-[3-methoxy-4-(1H-pyrazol-4-yl)phenyl]-8-[2-(2-methoxyethyl)-3-oxo-2,3-dihydro-1H-isoindole-4-carbonyl]-2,8-diazaspiro[4.5]decan-1-one]
2070 nM | COc1cc(N2CCC3(CCN(C(=O)C4CCN(C)CC4)CC3)C2=O)ccc1-c1cn[nH]c1 [Example 172, 2-[3-methoxy-4-(1H-pyrazol-4-yl)phenyl]-8-(1-methylpiperidine-4-carbonyl)-2,8-diazaspiro[4.5]decan-1-one]
3.3 nM | COc1cc(N2CCC3(CCN(C(=O)c4ccc(N5CCCCS5(=O)=O)cc4)CC3)C2=O)ccc1-c1cn[nH]c1 [Example 192, 8-(4-(1,1-dioxido-1,2-thiazinan-2-yl)benzoyl)-2-(3-methoxy-4-(1H-pyrazol-4-yl)phenyl)-2,8-diazaspiro[4.5]decan-1-one]
9.3 nM | COc1cc(N2CCC3(CCN(C(=O)c4ccc(N5CCN(CC(c6ccccc6)c6ccccc6)CC5)cc4)CC3)C2=O)ccc1-c1cn[nH]c1 [Example 222, 8-{4-[4-(2,2-diphenylethyl)piperazin-1-yl]benzoyl}-2-[3-methoxy-4-(1H-pyrazol-4-yl)phenyl]-2,8-diazaspiro[4.5]decan-1-one]
1020 nM | COc1cc(N2CCC3(CCN(C(=O)c4ccc(-c5nn[nH]n5)cc4)CC3)C2=O)ccc1-c1cn[nH]c1 [Example 143, 2-[3-methoxy-4-(1H-pyrazol-4-yl)phenyl]-8-[4-(2H-1,2,3,4-tetrazol-5-yl)benzoyl]-2,8-diazaspiro[4.5]decan-1-one]
1.9 nM | COc1cc(N2CCC3(CCN(C(=O)c4ccc(N5CCN(Cc6nc7ccccc7s6)CC5)cc4)CC3)C2=O)ccc1-c1cn[nH]c1 [Example 229, 8-(4-{4-[(1,3-benzothiazol-2-yl)methyl]piperazin-1-yl}benzoyl)-2-[3-methoxy-4-(1H-pyrazol-4-yl)phenyl]-2,8-diazaspiro[4.5]decan-1-one]

The next lines start with the compound.

SMILES | IC50
COc1ccc(C(=O)N2CCC3(CC2)CCN(c2ccc(-c4cn[nH]c4)c(OC)c2)C3=O)cc1F [Example 14, 8-(3-fluoro-4-methoxybenzoyl)-2-[3-methoxy-4-(1H-pyrazol-4-yl)phenyl]-2,8-diazaspiro[4.5]decan-1-one] | 8 nM
COc1cc(N2CCC3(CCN(C(=O)c4csnn4)CC3)C2=O)ccc1-c1cn[nH]c1 [Example 77, 2-[3-methoxy-4-(1H-pyrazol-4-yl)phenyl]-8-(1,2,3-thiadiazole-4-carbonyl)-2,8-diazaspiro[4.5]decan-1-one] | 453 nM
COc1cc(N2CCC3(CCN(C(=O)c4csc(-c5cccnc5)n4)CC3)C2=O)ccc1-c1cn[nH]c1 [Example 78, 2-[3-methoxy-4-(1H-pyrazol-4-yl)phenyl]-8-[2-(pyridin-3-yl)-1,3-thiazole-4-carbonyl]-2,8-diazaspiro[4.5]decan-1-one] | 76 nM
COc1cc(N2CCC3(CCN(C(=O)c4ccc5oc(C)nc5c4)CC3)C2=O)ccc1-c1cn[nH]c1 [Example 119, 2-[3-methoxy-4-(1H-pyrazol-4-yl)phenyl]-8-(2-methyl-1,3-benzoxazole-5-carbonyl)-2,8-diazaspiro[4.5]decan-1-one] | 70 nM
COc1cc(N2CCC3(CCN(C(=O)c4ccc(N5CCCCC5=O)cc4)CC3)C2=O)ccc1-c1cn[nH]c1 [Example 142, 2-[3-methoxy-4-(1H-pyrazol-4-yl)phenyl]-8-[4-(2-oxopiperidin-1-yl)benzoyl]-2,8-diazaspiro[4.5]decan-1-one] | 8.8 nM
COc1cc(N2CCC3(CCN(C(=O)c4nnc(-c5ccccn5)[nH]c4=O)CC3)C2=O)ccc1-c1cn[nH]c1 [Example 125, 2-[3-methoxy-4-(1H-pyrazol-4-yl)phenyl]-8-[5-oxo-3-(pyridin-2-yl)-4,5-dihydro-1,2,4-triazine-6-carbonyl]-2,8-diazaspiro[4.5]decan-1-one] | 26 nM
COc1cc(N2CCC3(CCN(C(=O)c4ccc(F)c(C)c4)CC3)C2=O)ccc1-c1cn[nH]c1 [Example 103, 8-(4-fluoro-3-methylbenzoyl)-2-[3-methoxy-4-(1H-pyrazol-4-yl)phenyl]-2,8-diazaspiro[4.5]decan-1-one] | 96 nM
COc1cc(OC)c(C(=O)N2CCC3(CC2)CCN(c2ccc(-c4cn[nH]c4)c(OC)c2)C3=O)c(OC)c1 [Example 29, 2-[3-methoxy-4-(1H-pyrazol-4-yl)phenyl]-8-(2,4,6-trimethoxybenzoyl)-2,8-diazaspiro[4.5]decan-1-one] | 336 nM
COc1ccc(C(=O)N2CCC3(CC2)CCN(c2ccc(-c4cn[nH]c4)c(OC)c2)C3=O)c(F)c1 [Example 17, 8-(2-Fluoro-4-methoxybenzoyl)-2-[3-methoxy-4-(1H-pyrazol-4-yl)phenyl]-2,8-diazaspiro[4.5]decan-1-one] | 8 nM
COc1cc(N2CCC3(CCN(C(=O)c4cc(C5CC5)on4)CC3)C2=O)ccc1-c1cn[nH]c1 [Example 100, 8-(5-cyclopropyl-1,2-oxazole-3-carbonyl)-2-[3-methoxy-4-(1H-pyrazol-4-yl)phenyl]-2,8-diazaspiro[4.5]decan-1-one] | 6 nM
COc1cc(N2CCC3(CCN(C(=O)c4cnccn4)CC3)C2=O)ccc1-c1cn[nH]c1 [Example 71, 2-[3-methoxy-4-(1H-pyrazol-4-yl)phenyl]-8-(pyrazine-2-carbonyl)-2,8-diazaspiro[4.5]decan-1-one] | 289 nM
COc1cc(N2CCC3(CCN(C(=O)c4ccc(S(N)(=O)=O)cc4)CC3)C2=O)ccc1-c1cn[nH]c1 [Example 55, 4-{2-[3-methoxy-4-(1H-pyrazol-4-yl)phenyl]-1-oxo-2,8-diazaspiro[4.5]decane-8-carbonyl}benzene-1-sulfonamide] | 96 nM
COC(=O)c1ccc(C(=O)N2CCC3(CC2)CCN(c2ccc(-c4cn[nH]c4)c(OC)c2)C3=O)cc1 [Example 24, methyl 4-{2-[3-methoxy-4-(1H-pyrazol-4-yl)phenyl]-1-oxo-2,8-diazaspiro[4.5]decane-8-carbonyl}benzoate] | 23 nM
COc1cc(N2CCC3(CCN(C(=O)c4cc(Cl)no4)CC3)C2=O)ccc1-c1cn[nH]c1 [Example 109, 8-(3-chloro-1,2-oxazole-5-carbonyl)-2-[3-methoxy-4-(1H-pyrazol-4-yl)phenyl]-2,8-diazaspiro[4.5]decan-1-one] | 362 nM
COc1cc(N2CCC3(CCN(C(=O)c4ccc(N5CCCNC5=O)cc4)CC3)C2=O)ccc1-c1cn[nH]c1 [Example 126, 2-[3-methoxy-4-(1H-pyrazol-4-yl)phenyl]-8-[4-(2-oxo-1,3-diazinan-1-yl)benzoyl]-2,8-diazaspiro[4.5]decan-1-one] | 7.7 nM
COc1cc(N2CCC3(CCN(C(=O)c4cccc(Oc5ccccc5)c4)CC3)C2=O)ccc1-c1cn[nH]c1 [Example 57, 2-[3-methoxy-4-(1H-pyrazol-4-yl)phenyl]-8-(3-phenoxybenzoyl)-2,8-diazaspiro[4.5]decan-1-one] | 118 nM
COc1cc(N2CCC3(CCN(C(=O)c4ccc(Oc5ccccc5)cc4)CC3)C2=O)ccc1-c1cn[nH]c1 [Example 60, 2-[3-methoxy-4-(1H-pyrazol-4-yl)phenyl]-8-(4-phenoxybenzoyl)-2,8-diazapsiro[4.5]decan-1-one] | 54 nM
COc1cc(N2CCC3(CCN(C(=O)c4cn5nc[nH]c(=O)c5c4C)CC3)C2=O)ccc1-c1cn[nH]c1 [Example 133, 2-[3-methoxy-4-(1H-pyrazol-4-yl)phenyl]-8-{5-methyl-4-oxo-3H,4H-pyrrolo[2,1-f][1,2,4]triazine-6-carbonyl}-2,8-diazaspiro[4.5]decan-1-one] | 88 nM
COc1cc(N2CCC3(CCN(C(=O)c4ccc(C(=O)NCC5CC5)cc4)CC3)C2=O)ccc1-c1cn[nH]c1 [Example 26, N-(cyclopropylmethyl)-4-{2-[3-methoxy-4-(1H-pyrazol-4-yl)phenyl]-1-oxo-2,8-diazaspiro[4.5]decane-8-carbonyl}benzamide] | 119 nM
COc1cc(N2CCC3(CCN(C(=O)c4ccc(N5CCNC5=O)cc4)CC3)C2=O)ccc1-c1cn[nH]c1 [Example 139, 2-[3-methoxy-4-(1H-pyrazol-4-yl)phenyl]-8-[4-(2-oxoimidazolidin-1-yl)benzoyl]-2,8-diazaspiro[4.5]decan-1-one] | 3.7 nM

Reference: patent publication US11192891B2, “Diazaspiro ROCK inhibitors” (BRISTOL-MYERS SQUIBB COMPANY, priority 2017, dated 2021)
